Values of other authors as cited in patent publication US5221745A, “Psychotropic piperidinylmethyl benzodioxans” (American Home Products Corp., priority 1992, dated 1993).

Legend:
[1] = system: 5-HT1A receptor; settings: Fozard et al. 1987
[2] = target: T1, serotonin 5-HT1A receptor (Rattus norvegicus, UniProt P19327); settings: standard for anxiolytic activity
T1 construct: following the procedure of Hall et al., J. Neurochem; 44, 1685 (1985); from tissue
T1 sequence (P19327 1-422): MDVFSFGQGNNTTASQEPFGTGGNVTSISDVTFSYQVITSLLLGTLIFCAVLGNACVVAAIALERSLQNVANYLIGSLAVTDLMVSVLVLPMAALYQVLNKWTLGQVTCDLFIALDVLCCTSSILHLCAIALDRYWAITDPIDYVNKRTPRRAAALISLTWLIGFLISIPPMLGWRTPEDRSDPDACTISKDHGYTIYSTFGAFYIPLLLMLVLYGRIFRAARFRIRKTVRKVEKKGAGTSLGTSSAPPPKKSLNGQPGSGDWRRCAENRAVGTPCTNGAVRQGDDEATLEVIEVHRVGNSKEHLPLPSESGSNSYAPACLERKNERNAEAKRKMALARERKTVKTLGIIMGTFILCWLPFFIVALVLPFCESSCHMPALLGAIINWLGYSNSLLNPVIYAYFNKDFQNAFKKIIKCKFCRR

SMILES	ligand character for 5-HT1A receptors (in words) [1]	affinity for the 5-HT1A serotonin receptor subtype (in words) [2]
O=C1CC2(CCCC2)CC(=O)N1CCCCNCC1COc2ccccc2O1 (centres unmarked) [MDL 72832, 8-[4-(1,4-benzodioxan-2-ylmethylamino)butyl]-8-azaspiro[4.5]decane-7,9-dione]	selective and stereospecific	–
O=C1CC2(CCCC2)CC(=O)N1CCCCN1CCN(c2ncccn2)CC1 [buspirone]	–	potent affinity
